Measurements reported in patent publication US20250332264A1, “GhR-BINDING PEPTIDE AND COMPOSITION COMPRISING SAME” (priority 2021, published 2025).
Starred links: 1 amine or outer side, 2 acyl side, 3 side chain; linkers in the order of their positions; H or OH if unused. Positions of bridges follow the written chain, without caps; N, C: chain ends. Non-standard residues stand in square brackets, D forms with d. Residues, ends and D or L forms follow the SMILES beside them. Groups on a side chain read outwards from the residue. *: point of attachment. X13 = NC(=O)[C@H](CCCCN*)NC(=O)COCCOCCNC(=O)COCCOCCNC(=O)CC[C@H](NC(=O)CC[C@H](NC(=O)CCCCCCCCCCCCC(=O)O)C(=O)O)C(=O)O; X8 = NC(=O)[C@H](CCCCN*)NC(=O)COCCOCCNC(=O)COCCOCCNC(=O)CC[C@H](NC(=O)CC[C@H](NC(=O)CCCCCCCCCCCCCC(=O)O)C(=O)O)C(=O)O; A4pipaa = 4-amino-1-(carboxymethyl)piperidine-4-carboxylic acid, O=C(C1(N[*:1])CCN(CC(=O)[*:3])CC1)[*:2]; X10 = NC(=O)[C@H](CCCCN*)NC(=O)CC[C@H](NC(=O)CC[C@H](NC(=O)CCCc1ccc(I)cc1)C(=O)O)C(=O)O; Trp(1-CH2CO) = O=C([C@H](Cc1cn(CC(=O)[*:3])c2ccccc12)N[*:1])[*:2]; Trp(5-OMe) = COc1ccc2[nH]cc(C[C@H](N)C(=O)O)c2c1; Butanoyl(4-(4-I-phenyl)) = O=C(CCCc1ccc(I)cc1)*; Trp(5-OH) = N[C@@H](Cc1c[nH]c2ccc(O)cc12)C(=O)O; Phe(4-COOH) = N[C@@H](Cc1ccc(C(=O)O)cc1)C(=O)O; Piperazinyl(4-CH2COOH) = O=C(O)CN1CCN(*)CC1; X7 = O=C(O)CN1CCC(N[*:1])(C(=O)[*:2])CC1; C16 diacid = O=C(O)CCCCCCCCCCCCCCC(=O)*; γGlu = O=C(O)[C@H](CCC(=O)[*:2])N[*:1]; NMeK = CN[C@@H](CCCCN)C(=O)O; Aib = CC(C)(N)C(=O)O; CO = O=C([*:1])[*:2]

T1: Recombinant human GhR-Fc protein (R&D Systems) (human, UniProt P10912 19-264, limits assumed)
T1 construct: Bought from R&D Systems; Amine-coupled to a CM5 chip in the SPR assay; also called hGhR; recombinant human GhR protein fused to Fc portion of human IgG; not shown: Fc portion of human IgG
T1 sequence (looked up): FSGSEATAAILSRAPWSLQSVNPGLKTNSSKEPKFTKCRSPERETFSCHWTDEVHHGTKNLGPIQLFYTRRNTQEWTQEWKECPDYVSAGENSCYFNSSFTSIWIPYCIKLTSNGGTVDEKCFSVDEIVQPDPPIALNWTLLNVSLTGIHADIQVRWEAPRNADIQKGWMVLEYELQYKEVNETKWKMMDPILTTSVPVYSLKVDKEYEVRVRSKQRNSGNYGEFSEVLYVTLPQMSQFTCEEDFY

B1: GhR_PD_231 (peptide)
peptide: {CH2CO}-[Phe(4-COOH)][NMeK]VVSN[Trp(1-CH2CO)]YK[Trp(5-OH)][Aib]VCK([Glu-Glu-C16 diacid])-NH2
modifications: thioether N-13; lactam 2-7
notes: also called Compound No. 19
B2: GhR_PD_238 (peptide)
peptide: {CH2CO}-[Phe(4-COOH)][NMeK]VVSN[Trp(1-CH2CO)]YK[Trp(5-OH)][A4pipaa]VCK([Glu-Glu-C16 diacid])-NH2
modifications: thioether N-13; lactam 2-7
notes: also called Compound No. 18
B3: GhR_PD_139 (peptide)
peptide: {CH2CO}-Y[NMeK]VVSN[Trp(1-CH2CO)]YK[Trp(5-OH)][Aib]VCG-NH2
modifications: thioether N-13; lactam 2-7
SMILES: CC(C)[C@@H]1NC(=O)[C@H](C(C)C)NC(=O)[C@@H]2CCCCNC(=O)Cn3cc(c4ccccc43)C[C@H](NC(=O)[C@H](CC(N)=O)NC(=O)[C@H](CO)NC1=O)C(=O)N[C@@H](Cc1ccc(O)cc1)C(=O)N[C@@H](CCCCN)C(=O)N[C@@H](Cc1c[nH]c3ccc(O)cc13)C(=O)NC(C)(C)C(=O)N[C@@H](C(C)C)C(=O)N[C@H](C(=O)NCC(N)=O)CSCC(=O)N[C@@H](Cc1ccc(O)cc1)C(=O)N2C
notes: also called Compound No. 1
B4: GhR_PD_237 (peptide)
peptide: {CH2CO}-Y[NMeK]VVSN[Trp(1-CH2CO)]YK[Trp(5-OH)][A4pipaa]VCK([Glu-Glu-C16 diacid])-NH2
modifications: thioether N-13; lactam 2-7
notes: also called Compound No. 29
B5: GhR_PD_246 (peptide)
peptide: {CH2CO}-Y[NMeK]VVSN[Trp(1-CH2CO)]YK[Trp(5-OH)][Aib]VCK([Glu-Glu-Butanoyl(4-(4-I-phenyl))])-NH2
modifications: thioether N-13; lactam 2-7
notes: also called Compound No. 32

The molecules below were run against T1, Recombinant human GhR-Fc protein (R&D …) (assay: SPR, Biacore T200, single-cycle kinetics, GhR-Fc immobilised on CM5). Settings: not given.
Experimental: (§1) SPR assay was performed using Biacore T200 (cytiva: Former GE Healthcare). After the equilibration of Series S Sensor Chip CM5 (produced by cytiva: Former GE Healthcare) with Running Buffer (HBS-EP with 1% (v/v) DMSO), an EDC/NHS mixture was injected at a flow rate of 10 μL/min for 7 minutes to thereby activate the functional groups on sensor chip. Recombinant human GhR-Fc protein (R&D Systems) in 10 mM Acetate (pH4.0) was injected immobilized to at a flow rate of 5 μL/min. It took 7 minutes to immobilize the GhR on the substrate surfaces of the sensor chip. Then Ethanolamine was injected at a flow rate of 10 μL/min for 7 minutes. 1M Ethanolamine (aq.) was injected at a flow rate of 10 μL/min for 420 seconds for capping. 10 mM Peptides in DMSO were diluted to obtain 10 uM with Running Buffer, and prepared 100 nM, 50 nM, 25 nM, 10 nM, 5 nM of each peptide solutions (Peptide Samples).
(§2) Using these Peptide Samples, kinetics of peptides against human GhR-Fc protein were measured. The method adopted for sample measurement was a single-cycle kinetics method. The analysis was conducted using the evaluation software provided with Biacore T200. A DMSO correction curve obtained by solvent correction measurements was applied for the analysis. Kinetics fitting was done on the difference data obtained by subtracting the baseline data from sample measurement data. KD values were calculated based on the association rate constant (ka) and dissociation rate constant (kd).

| Kd [nM] | Molecule |
| --- | --- |
| 1.93 | B1 |
| 2.4 | B2 |
| 0.7 | B3 |
| 1.57 | B4 |
| 0.98 | B5 |

Each molecule was assayed against T2, Recombinant human GhR-Fc protein (Homo sapiens, UniProt P10912) (assay: Binding activity of hGhR binding peptide by surface plasmon resonance (SPR), Biacore T200, single-cycle kinetics). Settings: human GhR-Fc immobilized on CM5 chip, KD calculated from ka and kd.
T2 construct: purchased R&D Systems
Experimental: as §1, with “capping.” for “capping. 10 mM Peptides in DMSO were diluted to obtain 10 uM with Running Buffer, and prepared 100 nM, 50 nM, 25 nM, 10 nM, 5 nM of each peptide solutions (Peptide Samples).”
as §2
Furthermore, “obs. m/z [M+2H]2+” indicates the ESI-MS(+) observed value. Unless otherwise specified, this is bivalent ([M+2H]^2+).

T2 sequence (P10912 with tags, fused parts or gaps limits assumed): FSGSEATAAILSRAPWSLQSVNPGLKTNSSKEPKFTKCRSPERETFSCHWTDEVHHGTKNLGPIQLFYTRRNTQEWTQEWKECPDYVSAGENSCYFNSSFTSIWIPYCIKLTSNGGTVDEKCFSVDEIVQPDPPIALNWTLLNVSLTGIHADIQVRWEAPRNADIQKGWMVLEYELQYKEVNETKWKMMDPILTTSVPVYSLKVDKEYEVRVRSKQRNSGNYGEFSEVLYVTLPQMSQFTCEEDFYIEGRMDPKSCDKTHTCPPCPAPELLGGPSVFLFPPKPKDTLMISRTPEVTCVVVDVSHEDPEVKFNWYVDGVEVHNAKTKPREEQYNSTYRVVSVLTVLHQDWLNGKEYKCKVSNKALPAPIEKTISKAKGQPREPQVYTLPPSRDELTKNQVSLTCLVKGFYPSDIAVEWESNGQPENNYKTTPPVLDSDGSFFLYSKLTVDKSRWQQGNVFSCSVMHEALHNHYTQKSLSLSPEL

| Kd [nM] | Molecule |
| --- | --- |
| 1.88 | CC(C)[C@@H]1NC(=O)[C@H](C(C)C)NC(=O)[C@@H]2CCCCNC(=O)Cn3cc(c4ccccc43)C[C@H](NC(=O)[C@H](CC(N)=O)NC(=O)[C@H](CO)NC1=O)C(=O)N[C@@H](Cc1ccc(C(=O)O)cc1)C(=O)N[C@@H](CCCCN)C(=O)N[C@@H](Cc1c[nH]c3ccc(O)cc13)C(=O)NC(C)(C)C(=O)N[C@@H](C(C)C)C(=O)N[C@H](C(=O)NCC(=O)N1CCC[C@H]1C(=O)N[C@H](CO)C(=O)N[C@H](CO)C(=O)N[C@H](CO)C(=O)NCCCC[C@H](NC(=O)CC[C@H](NC(=O)CC[C@H](NC(=O)CCCc1ccc(I)cc1)C(=O)O)C(=O)O)C(N)=O)CSCC(=O)N[C@@H](Cc1ccc(C(=O)O)cc1)C(=O)N2C [Compound 14] ({CH2CO}-[Phe(4-COOH)][NMeK]VVSN[Trp(1-CH2CO)][Phe(4-COOH)]K[Trp(5-OH)][Aib]VCGP[dS][dS][dS]-X10; lactam 2-7; thioether N-13) |
| 1.46 | CC(C)[C@@H]1NC(=O)[C@H](C(C)C)NC(=O)[C@@H]2CCCCNC(=O)Cn3cc(c4ccccc43)C[C@H](NC(=O)[C@H](CC(N)=O)NC(=O)[C@H](CO)NC1=O)C(=O)N[C@@H](Cc1ccc(C(=O)O)cc1)C(=O)N[C@@H](CCCCN)C(=O)N[C@@H](Cc1c[nH]c3ccc(O)cc13)C(=O)NC(C)(C)C(=O)N[C@@H](C(C)C)C(=O)N[C@H](C(=O)NCCCC[C@H](NC(=O)CC[C@H](NC(=O)CC[C@H](NC(=O)CCCc1ccc(I)cc1)C(=O)O)C(=O)O)C(N)=O)CSCC(=O)N[C@@H](Cc1ccc(C(=O)O)cc1)C(=O)N2C [Compound 9] ({CH2CO}-[Phe(4-COOH)][NMeK]VVSN[Trp(1-CH2CO)][Phe(4-COOH)]K[Trp(5-OH)][Aib]VC-X10; lactam 2-7; thioether N-13) |
| 3.88 | CC(C)[C@@H]1NC(=O)[C@H](C(C)C)NC(=O)[C@@H]2CCCCNC(=O)Cn3cc(c4ccccc43)C[C@H](NC(=O)[C@H](CC(N)=O)NC(=O)[C@H](CO)NC1=O)C(=O)N[C@@H](Cc1ccc(C(=O)O)cc1)C(=O)N[C@@H](CCCCN)C(=O)N[C@@H](Cc1c[nH]c3ccc(O)cc13)C(=O)NC(C)(C)C(=O)N[C@@H](C(C)C)C(=O)N[C@H](C(=O)NCCCC[C@H](NC(=O)COCCOCCNC(=O)COCCOCCNC(=O)CC[C@H](NC(=O)CC[C@H](NC(=O)CCCCCCCCCCCCC(=O)O)C(=O)O)C(=O)O)C(N)=O)CSCC(=O)N[C@@H](Cc1ccc(C(=O)O)cc1)C(=O)N2C [Compound 62] ({CH2CO}-[Phe(4-COOH)][NMeK]VVSN[Trp(1-CH2CO)][Phe(4-COOH)]K[Trp(5-OH)][Aib]VC-X13; lactam 2-7; thioether N-13) |
| 5.47 | COc1ccc2[nH]cc(C[C@@H]3NC(=O)[C@H](CC(N)=O)NC(=O)[C@H](CO)NC(=O)[C@H](C(C)C)NC(=O)[C@H](C(C)C)NC(=O)[C@H](CCCCNC(=O)CC[C@H](NC(=O)CC[C@H](NC(=O)CCCc4ccc(I)cc4)C(=O)O)C(=O)O)N(C)C(=O)[C@H](Cc4ccc(O)cc4)NC(=O)CSC[C@@H](C(=O)NCC(=O)N4CCC[C@H]4C(=O)N[C@H](CO)C(=O)N[C@H](CO)C(=O)N[C@H](CO)C(N)=O)NC(=O)[C@H](C(C)C)NC(=O)C4(CCN(CC(=O)O)CC4)NC(=O)[C@H](Cc4c[nH]c5ccc(O)cc45)NC(=O)[C@H](CCCCN)NC(=O)[C@H](Cc4ccc(C(=O)O)cc4)NC3=O)c2c1 [Compound 52] ({CH2CO}-Y[NMeK]([γGlu-γGlu-Butanoyl(4-(4-I-phenyl))])VVSN[Trp(5-OMe)][Phe(4-COOH)]K[Trp(5-OH)][X7]VCGP[dS][dS][dS]-NH2; thioether N-13) |
| 4.35 | COc1ccc2[nH]cc(C[C@@H]3NC(=O)[C@H](CC(N)=O)NC(=O)[C@H](CO)NC(=O)[C@H](C(C)C)NC(=O)[C@H](C(C)C)NC(=O)[C@H](CCCCNC(=O)CC[C@H](NC(=O)CCCc4ccc(I)cc4)C(=O)O)N(C)C(=O)[C@H](Cc4ccc(O)cc4)NC(=O)CSC[C@@H](C(=O)NCC(=O)N4CCC[C@H]4C(=O)N[C@H](CO)C(=O)N[C@H](CO)C(=O)N[C@H](CO)C(N)=O)NC(=O)[C@H](C(C)C)NC(=O)C(C)(C)NC(=O)[C@H](Cc4c[nH]c5ccc(O)cc45)NC(=O)[C@H](CCCCNC(=O)N4CCN(CC(=O)O)CC4)NC(=O)[C@H](Cc4ccc(C(=O)O)cc4)NC3=O)c2c1 [Compound 48] ({CH2CO}-Y[NMeK]([γGlu-Butanoyl(4-(4-I-phenyl))])VVSN[Trp(5-OMe)][Phe(4-COOH)]K([CO-Piperazinyl(4-CH2COOH)])[Trp(5-OH)][Aib]VCGP[dS][dS][dS]-NH2; thioether N-13) |
| 2.08 | CC(C)[C@@H]1NC(=O)[C@H](C(C)C)NC(=O)[C@@H]2CCCCNC(=O)Cn3cc(c4ccccc43)C[C@H](NC(=O)[C@H](CC(N)=O)NC(=O)[C@H](CO)NC1=O)C(=O)N[C@@H](Cc1ccc(C(=O)O)cc1)C(=O)N[C@@H](CCCCN)C(=O)N[C@@H](Cc1c[nH]c3ccc(O)cc13)C(=O)NC1(CCN(CC(=O)O)CC1)C(=O)N[C@@H](C(C)C)C(=O)N[C@H](C(=O)NCCCC[C@H](NC(=O)CC[C@H](NC(=O)CC[C@H](NC(=O)CCCc1ccc(I)cc1)C(=O)O)C(=O)O)C(N)=O)CSCC(=O)N[C@@H](Cc1ccc(C(=O)O)cc1)C(=O)N2C [Compound 8] ({CH2CO}-[Phe(4-COOH)][NMeK]VVSN[Trp(1-CH2CO)][Phe(4-COOH)]K[Trp(5-OH)][X7]VC-X10; lactam 2-7; thioether N-13) |
| 3.7 | CC(C)[C@@H]1NC(=O)[C@H](C(C)C)NC(=O)[C@@H]2CCCCNC(=O)Cn3cc(c4ccccc43)C[C@H](NC(=O)[C@H](CC(N)=O)NC(=O)[C@H](CO)NC1=O)C(=O)N[C@@H](Cc1ccc(C(=O)O)cc1)C(=O)N[C@@H](CCCCN)C(=O)N[C@@H](Cc1c[nH]c3ccc(O)cc13)C(=O)NC(C)(C)C(=O)N[C@@H](C(C)C)C(=O)N[C@H](C(=O)NCCCC[C@H](NC(=O)COCCOCCNC(=O)COCCOCCNC(=O)CC[C@H](NC(=O)CC[C@H](NC(=O)CCCCCCCCCCCCCC(=O)O)C(=O)O)C(=O)O)C(N)=O)CSCC(=O)N[C@@H](Cc1ccc(C(=O)O)cc1)C(=O)N2C [Compound 63] ({CH2CO}-[Phe(4-COOH)][NMeK]VVSN[Trp(1-CH2CO)][Phe(4-COOH)]K[Trp(5-OH)][Aib]VC-X8; lactam 2-7; thioether N-13) |
